Columns and labels:
Details in all cases: 72 h
BV-173 [1] = tested on: BV-173
Method in brief: (§1)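 Fifteen myeloid leukaemia cell lines were seeded in RPMI 1640 at a density titrated to the linear growth range. Each line went into 384-well plates with compounds acoustically pre-printed at five tenfold doses from 1 to 10,000 nM, in duplicate, and was incubated for 72 h at 37 °C with 5% CO2. Luminescent ATP viability was normalised to vehicle and to a positive control at 10 µM. The IC50 came from four-parameter log-logistic dose–response fits.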

HEL [2] = tested on: HEL
Method in brief: as §1

HL-60 [3] = tested on: HL-60
Method in brief: as §1

K-562 [4] = tested on: K-562
Method in brief: as §1

KCL-22 [5] = tested on: KCL-22
Method in brief: as §1

KG-1 [6] = tested on: KG-1
Method in brief: as §1

KU-812 [7] = tested on: KU-812
Method in brief: as §1

LAMA-84 [8] = tested on: LAMA-84
Method in brief: as §1

ML-2 [9] = tested on: ML-2
Method in brief: as §1

MOLM-13 [10] = tested on: MOLM-13
Method in brief: as §1

MV4-11 [11] = tested on: MV4-11
Method in brief: as §1

Mono-Mac-6 [12] = tested on: Mono-Mac-6
Method in brief: as §1

NOMO-1 [13] = tested on: NOMO-1
Method in brief: as §1

SHI-1 [14] = tested on: SHI-1
Method in brief: as §1

THP-1 [15] = tested on: THP-1
Method in brief: as §1

BV-173 [16] = experiment: cell viability (% survival relative to DMSO control, bortezomib = 0%); higher = less cytotoxic
Method in brief: (§2)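 Fifteen myeloid leukaemia cell lines (10 AML, 5 CML) were seeded at a density titrated to the linear growth range into 384-well plates pre-printed with compounds at 1, 10, 100, 1000 or 10000 nM in duplicate. Plates were incubated for 72 h at 37 °C with 5% CO2. Viability was then read by CellTiter-Glo luminescence. Each value is percent survival averaged over the duplicates, with vehicle set to 100% and a 10 µM positive control to 0%.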

HEL [17] = experiment: as above
Method in brief: as §2

HL-60 [18] = experiment: as above
Method in brief: as §2

K-562 [19] = experiment: as above
Method in brief: as §2

KCL-22 [20] = experiment: as above
Method in brief: as §2

KG-1 [21] = experiment: as above
Method in brief: as §2

KU-812 [22] = experiment: as above
Method in brief: as §2

LAMA-84 [23] = experiment: as above
Method in brief: as §2

ML-2 [24] = experiment: as above
Method in brief: as §2

MOLM-13 [25] = experiment: as above
Method in brief: as §2

MV4-11 [26] = experiment: as above
Method in brief: as §2

Mono-Mac-6 [27] = experiment: as above
Method in brief: as §2

NOMO-1 [28] = experiment: as above
Method in brief: as §2

SHI-1 [29] = experiment: as above
Method in brief: as §2

THP-1 [30] = experiment: as above
Method in brief: as §2

N#C/C(=C\c1ccc(O)cc1)C(=O)O [alpha-cyano-4-hydroxycinnamic acid]
IC50 (cell viability) (BV-173 [1]): > 10 µM | IC50 (cell viability) (HEL [2]): > 10 µM | IC50 (cell viability) (HL-60 [3]): > 10 µM | IC50 (cell viability) (K-562 [4]): > 10 µM | IC50 (cell viability) (KCL-22 [5]): > 10 µM | IC50 (cell viability) (KG-1 [6]): > 10 µM | IC50 (cell viability) (KU-812 [7]): > 10 µM | IC50 (cell viability) (LAMA-84 [8]): > 10 µM | IC50 (cell viability) (ML-2 [9]): > 10 µM | IC50 (cell viability) (MOLM-13 [10]): > 10 µM | IC50 (cell viability) (MV4-11 [11]): > 10 µM | IC50 (cell viability) (Mono-Mac-6 [12]): > 10 µM | IC50 (cell viability) (NOMO-1 [13]): > 10 µM | IC50 (cell viability) (SHI-1 [14]): > 10 µM | IC50 (cell viability) (THP-1 [15]): > 10 µM | cell viability (BV-173 [16]; 1 nM): 96.5% | cell viability (BV-173 [16]; 10 nM): 103% | cell viability (BV-173 [16]; 100 nM): 84.2% | cell viability (BV-173 [16]; 1000 nM): 80.1% | cell viability (BV-173 [16]; 10000 nM): 113% | cell viability (HEL [17]; 1 nM): 99.3% | cell viability (HEL [17]; 10 nM): 114% | cell viability (HEL [17]; 100 nM): 118% | cell viability (HEL [17]; 1000 nM): 113% | cell viability (HEL [17]; 10000 nM): 116% | cell viability (HL-60 [18]; 1 nM): 79.6% | cell viability (HL-60 [18]; 10 nM): 78.6% | cell viability (HL-60 [18]; 100 nM): 113% | cell viability (HL-60 [18]; 1000 nM): 99.5% | cell viability (HL-60 [18]; 10000 nM): 83.1% | cell viability (K-562 [19]; 1 nM): 101% | cell viability (K-562 [19]; 10 nM): 72.2% | cell viability (K-562 [19]; 100 nM): 95.4% | cell viability (K-562 [19]; 1000 nM): 103% | cell viability (K-562 [19]; 10000 nM): 91% | cell viability (KCL-22 [20]; 1 nM): 98.3% | cell viability (KCL-22 [20]; 10 nM): 97.6% | cell viability (KCL-22 [20]; 100 nM): 103% | cell viability (KCL-22 [20]; 1000 nM): 94% | cell viability (KCL-22 [20]; 10000 nM): 92% | cell viability (KG-1 [21]; 1 nM): 101% | cell viability (KG-1 [21]; 10 nM): 96.7% | cell viability (KG-1 [21]; 100 nM): 103% | cell viability (KG-1 [21]; 1000 nM): 99.2% | cell viability (KG-1 [21]; 10000 nM): 103% | cell viability (KU-812 [22]; 1 nM): 97.9% | cell viability (KU-812 [22]; 10 nM): 114% | cell viability (KU-812 [22]; 100 nM): 89.3% | cell viability (KU-812 [22]; 1000 nM): 87.4% | cell viability (KU-812 [22]; 10000 nM): 105% | cell viability (LAMA-84 [23]; 1 nM): 96.5% | cell viability (LAMA-84 [23]; 10 nM): 107% | cell viability (LAMA-84 [23]; 100 nM): 96.7% | cell viability (LAMA-84 [23]; 1000 nM): 101% | cell viability (LAMA-84 [23]; 10000 nM): 101% | cell viability (ML-2 [24]; 1 nM): 92.4% | cell viability (ML-2 [24]; 10 nM): 101% | cell viability (ML-2 [24]; 100 nM): 96.2% | cell viability (ML-2 [24]; 1000 nM): 95.8% | cell viability (ML-2 [24]; 10000 nM): 94.5% | cell viability (MOLM-13 [25]; 1 nM): 97.7% | cell viability (MOLM-13 [25]; 10 nM): 99.7% | cell viability (MOLM-13 [25]; 100 nM): 104% | cell viability (MOLM-13 [25]; 1000 nM): 99.1% | cell viability (MOLM-13 [25]; 10000 nM): 85.2% | cell viability (MV4-11 [26]; 1 nM): 100% | cell viability (MV4-11 [26]; 10 nM): 95.3% | cell viability (MV4-11 [26]; 100 nM): 95.7% | cell viability (MV4-11 [26]; 1000 nM): 100% | cell viability (MV4-11 [26]; 10000 nM): 101% | cell viability (Mono-Mac-6 [27]; 1 nM): 98.2% | cell viability (Mono-Mac-6 [27]; 10 nM): 101% | cell viability (Mono-Mac-6 [27]; 100 nM): 103% | cell viability (Mono-Mac-6 [27]; 1000 nM): 103% | cell viability (Mono-Mac-6 [27]; 10000 nM): 104% | cell viability (NOMO-1 [28]; 1 nM): 99.5% | cell viability (NOMO-1 [28]; 10 nM): 96.2% | cell viability (NOMO-1 [28]; 100 nM): 106% | cell viability (NOMO-1 [28]; 1000 nM): 104% | cell viability (NOMO-1 [28]; 10000 nM): 97.3% | cell viability (SHI-1 [29]; 1 nM): 99.9% | cell viability (SHI-1 [29]; 10 nM): 97% | cell viability (SHI-1 [29]; 100 nM): 95.1% | cell viability (SHI-1 [29]; 1000 nM): 97.3% | cell viability (SHI-1 [29]; 10000 nM): 86.6% | cell viability (THP-1 [30]; 1 nM): 95.5% | cell viability (THP-1 [30]; 10 nM): 98.3% | cell viability (THP-1 [30]; 100 nM): 98.3% | cell viability (THP-1 [30]; 1000 nM): 87.5% | cell viability (THP-1 [30]; 10000 nM): 93.2%

From the supplement of paper PMC8671470
